In patent US7387880B2, “Method for monitoring resting and activated platelets in unfixed blood samples” (PPD Biomarker Discovery Sciences, LLC, priority 2000, dated 2008):

Experiments:
CD62P on platelets [1] = assay: CD62P activation marker on platelets in unfixed whole blood drawn into EDTA or CTAD tubes, MLSC; assay type: cell-based, human; conditions: for Mean Intensity CD62P: mean relative intensity, entire platelet population
Description: (§1) Staining for MLSC. For whole blood platelet stains, 10 μl of whole blood was diluted into 990 μl of Tyrode's buffer supplemented with 1.5 mM theophylline and 0.37 mM adenosine for a final dilution of 1:100. Twenty microliters of diluted whole blood, thrombin-stimulated samples, or control samples were added to 96 well micro-titer plates containing 5 μl of the appropriate reagent cocktail. The cells were incubated in the dark at room temperature for 20 minutes. At the end of the incubation, 50 μl of modified PBS/BSA buffer supplemented with theophylline (1.5 mM)/adenosine (0.37 mM) (to prevent activation), and Zwittergent (50 mM) was added to all the wells and mixed thoroughly. Twenty-one microliters of diluted sample was loaded into Flex32 capillary array and analyzed by Surroscan MLSC. The assays are performed in homogeneous mode, without removal of unbound reagent. After all dilutions, the fluorescent platelet counts per capillary are about 1,000-2,000, comfortably in the range of 10 to 12,000 that is appropriate for the cytometry. This platelet count level provides appropriate counting statistics and avoids coincident events. Images were converted to flow cytometry standard (fcs) format with in-house software and analyzed with FlowJo™ cytometry analysis software (Tree Star, Inc., San Carlos, Calif.). Fluorescence intensities are compensated for spectral overlap of the dyes.
(§2) Previous research has shown that addition of platelet inhibitors to the anti-coagulant greatly reduces the activation state of human platelets prior to testing. Kuhne et al., Am. J. Hematol. 50:40-5 (1995); Mody et al., Transfus.Med. 9:147-54 (1999). […] Blood was obtained from a volunteer (set of 5 volunteers) and processed within 4 hours. This was done without fixation in order to maintain epitope integrity and allow for further activation studies. The samples were incubated with antibodies against platelet surface activation markers CD62P and CD63, as well as antibodies against GPIIIA, an antigen present on all platelets. All platelets were identified with GPIIIa (Cy5.5). The sample was then analyzed using MLSC. Gates for the Cy5-CD62P and Cy5-CD63 positive events were drawn based upon MOPC-21 control antibody staining.

CD63 on platelets [2] = assay: CD63 activation marker on platelets in unfixed whole blood drawn into EDTA or CTAD tubes, MLSC; assay type: cell-based, human; conditions: for Mean Intensity CD63: mean relative intensity, entire platelet population
Description: as §1, §2

platelets [3] = assay: Pan platelet surface antigen expression (CD9, GPIIIA, GPIIB), EDTA versus CTAD samples, MLSC; assay type: cell-based, human
Description: as §1, with “After all dilutions, the fluorescent platelet counts per capillary are about 1,000-2,000, comfortably in the range of 10 to 12,000 that is appropriate for the cytometry. This platelet count level provides appropriate counting statistics and avoids coincident events.” left out
(§3) Previous research has shown that addition of platelet inhibitors to the anti-coagulant greatly reduces the activation state of human platelets prior to testing. […] The sample was then analyzed using MLSC. […]

platelets [4] = assay: Total platelet count in EDTA and CTAD tubes, MLSC; assay type: cell-based, human; conditions: in the tubes
Description: as §1, with “After all dilutions, the fluorescent platelet counts per capillary are about 1,000-2,000, comfortably in the range of 10 to 12,000 that is appropriate for the cytometry. This platelet count level provides appropriate counting statistics and avoids coincident events.” left out
as §3

platelet factor 4 (PF4) = assay: Platelet factor 4 in plasma by chemiluminescent ELISA; set-up: species or system human
Description: Platelet Factor 4 was measured by chemiluminescent using ELISA. Antibodies were obtained from U.S. Biologicals (Swampscott, Mass.) and Affinity Biologicals Enzyme Research Lab. (Southbend, Ind.), recombinant standard from Chemicon (Temecula, Calif.). Briefly, Corning black opaque 96 well microtiter plates were coated with rabbit polyclonal anti-PF4 (human) overnight at 4° C. Plates were washed and samples or standards were added to the wells and allowed to incubate at room temperature. After washing, biotinylated polyclonal sheep anti-PF4 (human) was added followed by washing and the addition of avidin-alkaline Phosphatase. Plates were washed and the CDP-Star R (Tropix, Bedford, Mass.)) substrate added, allowed to develop and read on the Wallac Victor plate reader. The assay sensitivity of the assay is 20 pg/ml.
PF4 expression was determined by ELISA (sensitivity of 20 pg/ml).

CD62P on platelets [5] = assay: Platelet stimulation, CD62P expression by MLSC; assay type: cell-based, human
Description: Platelet stimulation. Thrombin stimulation was carried out on either washed platelets or 1:10 diluted whole blood in the presence of the fibrinogen cascade inhibitor peptide glycine-proline-arginine-proline (GPRP, 2 mM final concentration). Thrombin (5 U/ml) was added to 10 μl of sample in 75 μl Tyrode's buffer containing the GPRP (final total volume of 100 μl). Because the CTAD tubes contain reversible inhibitors of platelet activation, it was initially determined that a 10-fold dilution of the whole blood was sufficient to reduce the inhibitors below effective concentration and permit stimulation. […] Next, the reaction was incubated in a 37° C. water bath for 5 or 10 minutes and subsequently diluted to 1000 μl […] with Tyrode's buffer supplemented with 1.5 mM theophylline and 0.37 mM adenosine (final concentration). […]
Staining for MLSC. […] Twenty-one microliters of diluted sample was loaded into Flex32 capillary array and analyzed by Surroscan MLSC. […] Images were converted to flow cytometry standard (fcs) format with in-house software and analyzed with FlowJo™ cytometry analysis software (Tree Star, Inc., San Carlos, Calif.). Fluorescence intensities are compensated for spectral overlap of the dyes. […]

CD63 on platelets [6] = assay: Platelet stimulation, CD63 expression by MLSC; assay type: cell-based, human
Description: Platelet stimulation. Thrombin stimulation was carried out on either washed platelets or 1:10 diluted whole blood in the presence of the fibrinogen cascade inhibitor peptide glycine-proline-arginine-proline (GPRP, 2 mM final concentration). Thrombin (5 U/ml) was added to 10 μl of sample in 75 μl Tyrode's buffer containing the GPRP (final total volume of 100 μl). Because the CTAD tubes contain reversible inhibitors of platelet activation, it was initially determined that a 10-fold dilution of the whole blood was sufficient to reduce the inhibitors below effective concentration and permit stimulation. […] Next, the reaction was incubated in a 37° C. water bath for 5 or 10 minutes and subsequently diluted to 1000 μl […] with Tyrode's buffer supplemented with 1.5 mM theophylline and 0.37 mM adenosine (final concentration). In order to stop the stimulation and prevent non-specific activation of the control and test samples caused by the handling and staining techniques, theophylline and adenosine were added to the samples. A control sample lacking only the thrombin was run in parallel.
Staining for MLSC. For whole blood platelet stains, 10 μl of whole blood was diluted into 990 μl of Tyrode's buffer supplemented with 1.5 mM theophylline and 0.37 mM adenosine for a final dilution of 1:100. Twenty microliters of diluted whole blood, thrombin-stimulated samples, or control samples were added to 96 well micro-titer plates containing 5 μl of the appropriate reagent cocktail. The cells were incubated in the dark at room temperature for 20 minutes. […] Twenty-one microliters of diluted sample was loaded into Flex32 capillary array and analyzed by Surroscan MLSC. […] Images were converted to flow cytometry standard (fcs) format with in-house software and analyzed with FlowJo™ cytometry analysis software (Tree Star, Inc., San Carlos, Calif.). Fluorescence intensities are compensated for spectral overlap of the dyes. […]

CD62P on platelets [7] = conditions: thrombin; expected value; cited from earlier work
CD63 on platelets [8] = conditions: thrombin; expected value; cited from earlier work
[9] = 24 hr from draw, average of 4 measurements
[10] = 48 hr from draw, average of 5 subjects
[11] = thrombin 5 U/ml, 5 minute activation, whole blood 1:10 with GPRP, average of 19 to 22 subjects

O=C(O)CN(CCN(CC(=O)O)CC(=O)O)CC(=O)O [EDTA, Ethylene-diamino-tetra-acetic acid]
% Positive CD62P (CD62P on platelets [1]; [9]): 49 ± 20 % | Mean Intensity CD62P (CD62P on platelets [1]; 24 hr from draw): 910 ± 130 | % Positive CD62P (CD62P on platelets [1]; [10]): 41 ± 4.8 % | Mean Intensity CD62P (CD62P on platelets [1]; 48 hr from draw): 900 ± 60 | Mean Intensity CD62P (CD62P on platelets [1]; <4 hr from draw): 1110 ± 230 | % Positive CD62P (CD62P on platelets [1]; <4 hr from draw, platelets identified with GPIIIA, average of 5 subjects): 37 ± 17 % | range of platelet activation levels observed (CD62P on platelets [1]; EDTA samples, all time points): 8 to 50% | platelets positive for CD62P (CD62P on platelets [1]; matched samples analyzed over 48 hours): 40-50% | % Positive CD63 (CD63 on platelets [2]; [9]): 37 ± 22% | Mean Intensity CD63 (CD63 on platelets [2]; 24 hr from draw): 690 ± 77 | % Positive CD63 (CD63 on platelets [2]; [10]): 15 ± 7.0 % | Mean Intensity CD63 (CD63 on platelets [2]; 48 hr from draw): 680 ± 42 | % Positive CD63 (CD63 on platelets [2]; <4 hr from draw, average of 5 subjects): 22 ± 20 % | Mean Intensity CD63 (CD63 on platelets [2]; <4 hr from draw): 760 ± 43 | mean fluorescence intensity of GPIIB, lower in EDTA compared to CTAD (platelets [3]; EDTA relative to CTAD): about 40% | differences in expression of pan surface antigens CD9 or GPIIIA on platelets (platelets [3]; between EDTA and CTAD samples): no observable differences | change in total platelet count from 4 to 48 hours (platelets [4]): small but significant decrease | PF4 release, times greater in EDTA than in CTAD samples (platelet factor 4 (PF4); EDTA relative to CTAD, p<0.05): 5 times | PF4 in plasma (platelet factor 4 (PF4); average of 5 individuals, matched EDTA and CTAD draws): 627 ± 449 pg/mL

thrombin
Observed CD62P positive platelets (CD62P on platelets [5]; [11]): 192,000 ± 53,000 platelets/μl | expression level of CD63 on platelets after stimulation (CD63 on platelets [6]; five minute stimulation with thrombin): greatly increased | Observed CD63 positive platelets (CD63 on platelets [6]; [11]): 142,000 ± 40,000 platelets/μl | % of total platelets expressing CD63 (CD63 on platelets [6]; thrombin activation (5 U/ml, 5 minute), CTAD whole blood): 72 ± 8.2% | Expected % CD62P positive (CD62P on platelets [7]): >95% | Expected % CD63 positive (CD63 on platelets [8]): >80%

Nc1ncnc2c1ncn2[C@@H]1O[C@H](COP(=O)(O)OP(=O)(O)O)[C@@H](O)[C@H]1O [ADP, adenosine diphosphate]
platelets expressing CD62P (CD62P on platelets [5]; 30-minute stimulation with ADP): greater than 60%
